Assay results as given in PMC11822212, “High-throughput screening identifies Aurora kinase B as a critical therapeutic target for Merkel cell carcinoma” (Nature Communications, 2025).
Counter-ions that a name gives are not always drawn.

Experiments:
NIH-3T3 cells = experiment: qHTS cell viability (CellTiter-Glo, 72 h; primary screen), control cell line; assay type: cell-based, mouse
WAGA cells (VP-MCC) = experiment: qHTS cell viability (CellTiter-Glo, 72 h; primary and follow-up small molecule screen); assay type: cell-based, human
[1] = test system: MCC cell lines (WAGA, MKL-1, MKL-2, MCC13, MCC26, UISO); experiment: qHTS cell viability, all six MCC cell lines as a group (mean AUC, MCC.avg); assay type: cell-based, human; conditions: NPC library
CRL-7250 cells = experiment: qHTS cell viability (CellTiter-Glo, 72 h; primary screen), control cell line; assay type: cell-based
MCC13 cells (VN-MCC) = experiment: qHTS cell viability (CellTiter-Glo, 72 h; primary and follow-up small molecule screen); assay type: cell-based, human
[2] = test system: VP-MCC cell lines (WAGA, MKL-1, MKL-2); experiment: qHTS cell viability, VP-MCC cell lines as a group (mean AUC, VP.MCC.avg); assay type: cell-based, human; conditions: for VP-MCC_Avg_AUC: mean AUC of VP-MCC cell lines
MCC26 cells (VN-MCC) = experiment: qHTS cell viability (CellTiter-Glo, 72 h; primary and follow-up small molecule screen); assay type: cell-based, human
[3] = test system: VN-MCC cell lines (MCC13, MCC26, UISO); experiment: qHTS cell viability, VN-MCC cell lines as a group (mean AUC, VN.MCC.avg); assay type: cell-based, human; conditions: for VN-MCC_Avg_AUC: mean AUC of VN-MCC cell lines
MKL-2 cells (VP-MCC) = experiment: qHTS cell viability (CellTiter-Glo, 72 h; primary and follow-up small molecule screen); assay type: cell-based, human
UISO cells (VN-MCC) = experiment: as above; assay type: cell-based, human
MKL-1 cells (VP-MCC) = experiment: as above; assay type: cell-based, human
[4] = test system: six MCC cell lines and four control cell lines; experiment: qHTS cell viability, all 10 cell lines screened; assay type: cell-based; conditions: NPC library
HEK293T cells = experiment: qHTS cell viability (CellTiter-Glo, 72 h; primary screen), control cell line; assay type: cell-based, human
[5] = test system: control cell lines (HACAT, HEK293T, CRL-7250, NIH-3T3); experiment: qHTS cell viability, control cell lines as a group (mean AUC, Control.avg); assay type: cell-based; conditions: NPC library; mean AUC of control cell lines
HACAT cells = experiment: qHTS cell viability (CellTiter-Glo, 72 h; primary screen), control cell line; assay type: cell-based, human
[6] = NPC library, qHTS dose-response AUC, NIH3T3 control
[7] = area under the dose-response curve, NIH3T3 control cells, AUC<450 = reduced viability
[8] = NPC library, qHTS dose-response AUC, WAGA
[9] = area under the dose-response curve, WAGA cells, AUC<450 = reduced viability
[10] = mean AUC of all 6 MCC cell lines
[11] = NPC library, qHTS dose-response AUC, CRL7250 control
[12] = area under the dose-response curve, CRL7250 control cells, AUC<450 = reduced viability
[13] = NPC library, qHTS dose-response AUC, MCC13
[14] = area under the dose-response curve, MCC13 cells, AUC<450 = reduced viability
[15] = NPC library, therapeutic window: Control avg AUC minus VP-MCC avg AUC
[16] = NPC library, qHTS dose-response AUC, MCC26
[17] = area under the dose-response curve, MCC26 cells; AUC<450 = reduced viability
[18] = NPC library, therapeutic window: Control avg AUC minus VN-MCC avg AUC
[19] = NPC library, qHTS dose-response AUC, MKL2
[20] = area under the dose-response curve, MKL-2 cells, AUC<450 = reduced viability
[21] = NPC library, qHTS dose-response AUC, UISO
[22] = area under the dose-response curve, UISO cells, AUC<450 = reduced viability
[23] = NPC library, qHTS dose-response AUC, MKL1
[24] = therapeutic window: Control avg AUC minus MCC avg AUC
[25] = NPC library, qHTS dose-response AUC, HEK293T control
[26] = area under the dose-response curve, HEK293T control cells; AUC<450 = reduced viability
[27] = NPC library, qHTS dose-response AUC, HACAT control
[28] = area under the dose-response curve, HACAT control cells, AUC<450 = reduced viability
[29] = NPC library; qHTS dose-response AUC, MCC26
[30] = NPC library; qHTS dose-response AUC, HEK293T control
[31] = NPC library, 8-point DRC, control cell line
[32] = NPC library, 8-point DRC, area under dose-response curve

CCN(CC)CCNC(=O)c1ccc(NC(C)=O)cc1 [Acecainide hydrochloride] gave an NIH3T3_AUC (NIH-3T3 cells; [6]) of 480.581, an NIH3T3_AUC (NIH-3T3 cells; [7]) of 480.581 and a WAGA_AUC (WAGA cells (VP-MCC); [8]) of 423.417. The WAGA_AUC (WAGA cells (VP-MCC); [9]) was 423.417, the MCC_Avg_AUC [1, 10] was 421.904 and the MCC_Avg_AUC ([1]; mean AUC of six MCC cell lines) was 421.904. The CRL7250_AUC (CRL-7250 cells; [11]) was 485.167, the CRL7250_AUC (CRL-7250 cells; [12]) was 485.167 and the MCC13_AUC (MCC13 cells (VN-MCC); [13]) was 428.813. It also gave an MCC13_AUC (MCC13 cells (VN-MCC); [14]) of 428.813, a Control-VP-MCC ([2]; Control AUC minus VP-MCC AUC) of 54.3246 and a VP-MCC_Avg_AUC ([2]; NPC library) of 424.056. For the same compound, the Control-VP-MCC [2, 15] was 54.3246, the MCC26_AUC (MCC26 cells (VN-MCC); [16]) was 385.871 and the MCC26_AUC (MCC26 cells (VN-MCC); [17]) was 385.871. The Control-VN-MCC ([3]; Control AUC minus VN-MCC AUC) was 58.6292, the VN-MCC_Avg_AUC ([3]; NPC library) was 419.752 and the Control-VN-MCC [3, 18] was 58.6293. For the same compound, the MKL2_AUC (MKL-2 cells (VP-MCC); [19]) was 429.744, the MKL2_AUC (MKL-2 cells (VP-MCC); [20]) was 429.744 and the UISO_AUC (UISO cells (VN-MCC); [21]) was 444.571. The UISO_AUC (UISO cells (VN-MCC); [22]) was 444.571, the MKL1_AUC (MKL-1 cells (VP-MCC); [23]) was 419.008 and the MKL1_AUC (MKL-1 cells (VP-MCC); {}) was 419.008. It also gave a Control-MCC [4, 24] of 56.4769, an HEK293T_AUC (HEK293T cells; [25]) of 458.505 and an HEK293T_AUC (HEK293T cells; [26]) of 458.505. It also gave a Control_Avg_AUC [5] of 478.381, an HACAT_AUC (HACAT cells; [27]) of 489.271 and an HACAT_AUC (HACAT cells; [28]) of 489.271.

With CCCCC(CC)CNC(=N)NC(=N)NCCCCCCNC(=N)NC(=N)NCC(CC)CCCC (centres unmarked) [Alexidine dihydrochloride] the NIH3T3_AUC (NIH-3T3 cells; [6]) was 453.563, the WAGA_AUC (WAGA cells (VP-MCC); [8]) was 351.758 and the MCC_Avg_AUC ([1]; mean AUC of six MCC cell lines) was 358.46. The CRL7250_AUC (CRL-7250 cells; [11]) was 401.378, the MCC13_AUC (MCC13 cells (VN-MCC); [13]) was 392.522 and the VP-MCC_Avg_AUC ([2]; NPC library) was 342.155. For the same compound, the Control-VP-MCC [2, 15] was 64.8071, the MCC26_AUC (MCC26 cells (VN-MCC); [29]) was 401.146 and the VN-MCC_Avg_AUC ([3]; NPC library) was 374.766. The Control-VN-MCC [3, 18] was 32.1955, the MKL2_AUC (MKL-2 cells (VP-MCC); [19]) was 344.79 and the UISO_AUC (UISO cells (VN-MCC); [21]) was 330.63. The MKL1_AUC (MKL-1 cells (VP-MCC); [23]) was 329.916, the Control-MCC [4, 24] was 48.5013 and the HEK293T_AUC (HEK293T cells; [30]) was 380.139. The Control_Avg_AUC [5] was 406.962 and the HACAT_AUC (HACAT cells; [27]) was 392.766.

N=C(N)NC(=O)c1nc(Cl)c(N)nc1N [Amiloride] gave an NIH3T3_AUC (NIH-3T3 cells; [6]) of 492.231, a WAGA_AUC (WAGA cells (VP-MCC); [8]) of 426.991 and an MCC_Avg_AUC ([1]; mean AUC of six MCC cell lines) of 436.501. It also gave a CRL7250_AUC (CRL-7250 cells; [11]) of 484.959, an MCC13_AUC (MCC13 cells (VN-MCC); [13]) of 460.482 and a VP-MCC_Avg_AUC ([2]; NPC library) of 428.06. The Control-VP-MCC [2, 15] was 61.468, the MCC26_AUC (MCC26 cells (VN-MCC); [29]) was 436.049 and the VN-MCC_Avg_AUC ([3]; NPC library) was 444.942. For the same compound, the Control-VN-MCC [3, 18] was 44.5863, the MKL2_AUC (MKL-2 cells (VP-MCC); [19]) was 417.455 and the UISO_AUC (UISO cells (VN-MCC); [21]) was 438.294. For the same compound, the MKL1_AUC (MKL-1 cells (VP-MCC); [23]) was 439.734, the Control-MCC [4, 24] was 53.0271 and the HEK293T_AUC (HEK293T cells; [30]) was 497.776. For the same compound, the Control_Avg_AUC [5] was 489.528 and the HACAT_AUC (HACAT cells; [27]) was 483.146.

Nc1ccc(C(=O)NCC(=O)O)cc1 [Aminohippuric acid] gave an NIH3T3_AUC (NIH-3T3 cells; [31]) of 454.303, an NIH3T3_AUC (NIH-3T3 cells; [6]) of 454.303 and an NIH3T3_AUC (NIH-3T3 cells; [7]) of 454.303. For the same compound, the WAGA_AUC (WAGA cells (VP-MCC); [32]) was 448.077, the WAGA_AUC (WAGA cells (VP-MCC); [8]) was 448.077 and the WAGA_AUC (WAGA cells (VP-MCC); [9]) was 448.077. It also gave an MCC_Avg_AUC [1, 10] of 414.564, an MCC_Avg_AUC ([1]; mean AUC of six MCC cell lines) of 414.564 and a CRL7250_AUC (CRL-7250 cells; [31]) of 477.44. The CRL7250_AUC (CRL-7250 cells; [11]) was 477.44, the CRL7250_AUC (CRL-7250 cells; [12]) was 477.44 and the MCC13_AUC (MCC13 cells (VN-MCC); [32]) was 391.573. The MCC13_AUC (MCC13 cells (VN-MCC); [13]) was 391.574, the MCC13_AUC (MCC13 cells (VN-MCC); [14]) was 391.574 and the Control-VP-MCC ([2]; Control AUC minus VP-MCC AUC) was 53.2142. It also gave a Control-VP-MCC ([2]; NPC library, Control AUC minus VP-MCC AUC (therapeutic window)) of 53.2142, a VP-MCC_Avg_AUC ([2]; NPC library) of 416.917 and an MCC26_AUC (MCC26 cells (VN-MCC); [32]) of 410.554. For the same compound, the MCC26_AUC (MCC26 cells (VN-MCC); [16]) was 410.554, the MCC26_AUC (MCC26 cells (VN-MCC); [17]) was 410.554 and the Control-VN-MCC ([3]; Control AUC minus VN-MCC AUC) was 57.9205. The Control-VN-MCC ([3]; NPC library, Control AUC minus VN-MCC AUC (therapeutic window)) was 57.9205, the VN-MCC_Avg_AUC ([3]; NPC library) was 412.211 and the MKL2_AUC (MKL-2 cells (VP-MCC); [32]) was 407.303. The MKL2_AUC (MKL-2 cells (VP-MCC); [19]) was 407.303, the MKL2_AUC (MKL-2 cells (VP-MCC); [20]) was 407.303 and the UISO_AUC (UISO cells (VN-MCC); [32]) was 434.505. It also gave a UISO_AUC (UISO cells (VN-MCC); [21]) of 434.505, a UISO_AUC (UISO cells (VN-MCC); [22]) of 434.505 and an MKL1_AUC (MKL-1 cells (VP-MCC); [32]) of 395.372. It also gave an MKL1_AUC (MKL-1 cells (VP-MCC); [23]) of 395.372, an MKL1_AUC (MKL-1 cells (VP-MCC); {}) of 395.372 and a Control-MCC ([4]; Control AUC minus MCC AUC (therapeutic window)) of 55.5673. It also gave an HEK293T_AUC (HEK293T cells; [31]) of 467.378, an HEK293T_AUC (HEK293T cells; [25]) of 467.377 and an HEK293T_AUC (HEK293T cells; [26]) of 467.377. It also gave a Control_Avg_AUC [5] of 470.131, an HACAT_AUC (HACAT cells; [31]) of 481.404 and an HACAT_AUC (HACAT cells; [27]) of 481.404. The HACAT_AUC (HACAT cells; [28]) was 481.404.
